In patent publication US20070059382A1 (Board of Regents, Univ. and Comm. College System of …, priority 2005, published 2007):
Values joined by “and” are separate entries in the source; they are usually repeats but may differ in a detail not shown here. Equal entries are not always repeated. “Also recorded” adds a separate entry of the source. Where two headings read alike, the source gives them in different places.

What was measured:
[1] = test system: HeLa cells; test: Growth of HeLa cells (express the NaBC1 transporter); type: cell-based; conditions: 1 mM
[2] = test system: cyclins A-E and MAPK proteins; conditions: cited from earlier work
[3] = in vivo; cited from earlier work
[4] = test system: LNCaP tumor; conditions: nude mice, 1.7 and 9.0 mgB/Kg/day; cited from earlier work
[5] = test system: ZR-75-1; test: Detachment of growing cells (attached and floating cells); type: cell-based, human; conditions: seven days, 0.5 to 10 mM boric acid
Excerpt: We quantified the attached and floating cells. The data is shown below in FIG. 7.

[6] = test system: ZR-75-1; test: Cell attachment (reattachment after trypsin harvest)
[7] = test system: ZR-75-1
[8] = humans, chronic (about 1 g of boric acid); cited from earlier work
[9] = test system: LNCaP; conditions: cited from earlier work
[10] = test system: SK-BR-3
[11] = test system: non-tumorigenic prostate cell lines; conditions: cited from earlier work
[12] = test system: PC-3; conditions: cited from earlier work
[13] = test system: MCF-7; test: Cell attachment (reattachment after trypsin harvest)
[14] = test system: DU-145; conditions: cited from earlier work
[15] = test system: DU-145 cells; conditions: cited from earlier work
[16] = test system: MCF-7; conditions: 1 mM
[17] = in vivo; cited from earlier work; remark: listed apart in the source
[18] = treated three days, then boric acid removed

For `OB(O)O` [boric acid], the “growth inhibition” value [1] is given as “very little inhibition”, the “change in cyclins A-E and MAPK proteins” value [2] is given as “dose-dependent reduction” and the “fraction excreted in the urine” value [3] is given as “about 85%”. The half-life [3] was “about 21 hrs”, the “time to excretion in the urine after ingestion” value [3] was at most 24 h and the “inhibition of LNCaP tumor growth” value [4] was “about 30%”. For the same molecule, the “cell detachment / floating cells” value [5] was “causing breast cancer cells to detach and undergo apoptosis; also recorded: cells were seen floating in the media”, the “effect on cell attachment” value ([6]; ZR-75-1, 1 mM (Experiments 1, 2)) was “inhibit the attachment; also recorded: inhibited their reattachment” and the “effect on cell attachment” value ([6]; ZR-75-1, 1 mM (Experiments 1, 2), listed as BA) was “did not”. For the same molecule, the “percentage of cells that had reattached” value ([6]; ZR-75-1, 30 min, 1 mM each compound) was 24.5 ± 5.2%, the “percentage of cells that had reattached” value ([6]; ZR-75-1, 60 min, 1 mM each compound) was 74.1 ± 26.1% and the “percentage of cells that had reattached” value ([6]; ZR-75-1, 90 min, 1 mM each compound) was 98.2 ± 34.0%. The “percentage of cells that had reattached” value ([6]; ZR-75-1, 120 min, 1 mM each compound) was 104.0 ± 16.1%, the “growth inhibition” value ([7]; 1 mM) was “sensitive; also recorded: growth inhibition; also recorded: very sensitive” and the “time to resume normal growth rate after boric acid removal” value [7, 18] was “about three”. The “chronic intake with no adverse effects” value [8] was 2.5 mg/kg/day, the “growth inhibition” value [9] was “inhibits the growth” and the “growth inhibition” value ([9]; listed as BA) was “much less sensitive”. The “growth inhibition” value ([10]; 1 mM) was “growth inhibition”, the “time to resume normal growth rate after boric acid removal” value [10, 18] was “about three” and the “growth inhibition” value [11] was “not”. The “growth inhibition” value [12] was “inhibits the growth”, the “growth inhibition” value ([12]; listed as BA) was “much less sensitive” and the “effect on cell attachment” value ([13]; MCF-7, 1 mM (Experiments 3, 4)) was “did not”. The “percentage of cells that had reattached” value ([13]; MCF-7, 30 min, 1 mM each compound) was 53.5 ± 3.0%, the “percentage of cells that had reattached” value ([13]; MCF-7, 60 min, 1 mM each compound) was 92.6 ± 9.1% and the “percentage of cells that had reattached” value ([13]; MCF-7, 90 min, 1 mM each compound) was 105.7 ± 6.8%. For the same molecule, the “percentage of cells that had reattached” value ([13]; MCF-7, 120 min, 1 mM each compound) was 97.5 ± 4.1%, the “growth inhibition” value [14] was “inhibits the growth” and the “growth inhibition” value ([14]; listed as BA) was “sensitive”. For the same molecule, the “adhesion, migration and invasion potential” value [15] was “reduced” and the “growth inhibition” value [16] was “not growth inhibited; also recorded: no growth inhibition; also recorded: much less sensitive”.

For `[B]` [boron], the “Tolerable Upper Intake Level (UL)” value [17] is given as 20 mg/day.

With `[Cl][Mn][Cl]` [MnCl2, reference compound] the “effect on cell attachment” value [6] was “stimulates attachment”, the “percentage of cells that had reattached” value [6] was 42.6 ± 12.0% and 67.3 ± 12.0% and 70.2 ± 1.4% and 77.8 ± 13.6% and the “effect on cell attachment” value [13] was “stimulates attachment”. For the same molecule, the “percentage of cells that had reattached” value [13] was 53.9 ± 12.3% and 69.4 ± 2.9% and 74.9 ± 3.6% and 81.5 ± 9.9%.
